Test results taken from publication PMC7770183, “Enhanced Bioavailability of Boswellic Acid by Piper longum: A Computational and Pharmacokinetic Study” (Frontiers in Pharmacology, 2020).
Where two headings read alike, the source gives them in different places.

Assay: Pharmacokinetic study of β-boswellic acid in rabbits with and without Piper longum extract (serum, HPLC-UV)
Assay type: in vivo
Conditions: for AUC(0-t) / AUC(0-inf) / Cmax / Tmax / Vd/F / k el: male, rabbit, serum, po; for AUC(0-t): oral capsule; for Vd/F: read-out: Apparent volume of distribution (Vd/F); for k el: read-out: Ke (converted)
[1] = 20 mg, oral, Control: 20 mg of BA alone
[2] = Test I: 20 mg of BA + 2.5 mg of PL
[3] = Test II: 20 mg of BA + 10 mg of PL

- AUC(0-t) (20 mg, Control: 20 mg of β-boswellic acid (BA) alone): 766 ± 22.8 ng·h/mL
- AUC(0-inf) [1]: 772 ± 22.1 ng·h/mL
- Cmax [1]: 260 ± 21.3 ng/mL
- Tmax [1]: 2 ± 0.18 h
- Vd/F [1]: 96 ± 14 L
- k el [1]: 0.000131 s⁻¹
- AUC(0-inf) [2]: 2660 ± 102 ng·h/mL
- Cmax [2]: 321.4 ± 2.7 ng/mL
- Tmax [2]: 2 ± 0.22 h
- Vd/F [2]: 43.2 ± 7 L
- k el [2]: 5.24e-05 s⁻¹
- AUC(0-inf) [3]: 2850 ± 251 ng·h/mL
- Cmax [3]: 359 ± 12 ng/mL
- Tmax [3]: 3 ± 0.26 h
- Vd/F [3]: 67.5 ± 11 L
- k el [3]: 3.07e-05 s⁻¹
- AUC(0-t) (Test I: 20 mg of BA + 2.5 mg of adjuvant (PL)): 1890 ± 109 ng·h/mL
- AUC(0-t) (Test II: 20 mg of BA + 10 mg of adjuvant (PL)): 2210 ± 115 ng·h/mL
- Ka (oral, Control: 20 mg of BA alone): 0.6168 ± 0.16 h⁻¹
- Ka (oral, Test I: 20 mg of BA + 2.5 mg of PL): 0.740 ± 0.22 h⁻¹
- Ka (oral, Test II: 20 mg of BA + 10 mg of PL): 0.6112 ± 0.17 h⁻¹
- time of complete elimination from serum (oral, β-boswellic acid alone): 9 h
SMILES: C[C@H]1[C@H](C)CC[C@]2(C)CC[C@]3(C)C(=CC[C@@H]4[C@@]5(C)CC[C@@H](O)[C@](C)(C(=O)O)[C@@H]5CC[C@]43C)[C@H]12 [β-boswellic acid, 3α-hydroxyurs-12-en-24-oic acid]
